Laboratory results as given in PubChem BioAssay (NCI).
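Method: 48-hour compound exposure of cells in 96-well plates, five concentrations, linear interpolation of endpoints. GI50 = concentration required for 50% inhibition of growth. TGI denotes the concentration required for complete inhibition of growth.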

Columns and labels:
Assay in all cases: NCI anticancer screen, dose series, 48 h
[1] = test system: OVCAR-5 ovarian
[2] = test system: NCI/ADR-RES ovarian
[3] = test system: SR leukemia
[4] = test system: NCI-H522 lung
[5] = test system: CAKI-1 renal
[6] = test system: SK-OV-3 ovarian
[7] = test system: UO-31 renal
[8] = test system: SF-295 CNS
[9] = test system: A549 NSCLC
[10] = test system: HOP-62 NSCLC
[11] = test system: HS 578T breast
[12] = test system: A498 renal
[13] = test system: TK-10 renal
[14] = test system: HOP-92 NSCLC
[15] = test system: 786-0 renal
[16] = test system: HL-60(TB) leukemia
[17] = test system: K-562 leukemia
[18] = test system: SK-MEL-28 melanoma
[19] = test system: SF-539 CNS
[20] = test system: SW-620 colon
[21] = test system: SF-268 CNS
[22] = test system: NCI-H23 lung
[23] = test system: T-47D breast
[24] = test system: SNB-19 CNS
[25] = test system: UACC-257 melanoma
[26] = test system: NCI-H226 lung
[27] = test system: OVCAR-4 ovarian
[28] = test system: SK-MEL-5 melanoma
[29] = test system: MCF7 breast
[30] = test system: U251 CNS
[31] = test system: RPMI-8226 leukemia
[32] = test system: IGROV1 ovarian
[33] = test system: M14 melanoma
[34] = test system: SN12C renal
[35] = test system: RXF 393 renal
[36] = test system: HT29 colon
[37] = test system: HCT-15 colon
[38] = test system: HCT-116 colon
[39] = test system: OVCAR-3 ovarian
[40] = test system: SK-MEL-2 melanoma
[41] = test system: MOLT-4 leukemia
[42] = test system: UACC-62 melanoma
[43] = test system: NCI-H460 lung
[44] = test system: LOX IMVI melanoma
[45] = test system: CCRF-CEM leukemia
[46] = test system: EKVX NSCLC
[47] = test system: DU-145 prostate
[48] = test system: OVCAR-8 ovarian
[49] = test system: ACHN renal
[50] = test system: PC-3 prostate
[51] = test system: MDA-MB-231 breast
[52] = test system: MDA-MB-435
[53] = test system: SNB-75 CNS
[54] = test system: KM12 colon
[55] = test system: HCC-2998 colon
[56] = test system: MALME-3M melanoma
[57] = test system: COLO 205 colon

With `S=c1sc2c(Cl)nc(-c3cccnc3)nc2n1-c1ccccc1` the GI50 [1] was greater than 100 µM, the TGI [1] was greater than 100 µM and the GI50 [2] was 3.05 µM. For the same molecule, the TGI [2] was greater than 100 µM, the GI50 [3] was 0.556 µM and the TGI [3] was 4.68 µM. It also gave a GI50 [4] of 1.54 µM, a TGI [4] of 3.1 µM and a GI50 [5] of 1.67 µM. For the same molecule, the TGI [5] was 3.14 µM, the GI50 [6] was greater than 100 µM and the TGI [6] was greater than 100 µM. For the same molecule, the GI50 [7] was 1.64 µM, the TGI [7] was 3.33 µM and the GI50 [8] was greater than 100 µM. The TGI [8] was greater than 100 µM, the GI50 [9] was greater than 100 µM and the TGI [9] was greater than 100 µM. The GI50 [10] was 3.27 µM, the TGI [10] was greater than 100 µM and the GI50 [11] was 4.09 µM. The TGI [11] was greater than 100 µM, the GI50 [12] was greater than 100 µM and the TGI [12] was greater than 100 µM. For the same molecule, the GI50 [13] was greater than 100 µM, the TGI [13] was greater than 100 µM and the GI50 [14] was 3.18 µM. For the same molecule, the TGI [14] was 30.5 µM.
`CCCCCCNCc1cc(C(C)(C)C)cc(CNCCCCCC)c1O` showed a GI50 [15] of 1.77 µM, a TGI [15] of 3.26 µM and a GI50 [16] of 1.68 µM. For the same molecule, the TGI [16] was 3.33 µM, the GI50 [17] was 1.3 µM and the TGI [17] was 3.04 µM. The GI50 [18] was 1.83 µM, the TGI [18] was 3.27 µM and the GI50 [19] was 1.64 µM. The TGI [19] was 3.09 µM, the GI50 [1] was 1.54 µM and the TGI [1] was 2.88 µM. For the same molecule, the GI50 [20] was 1.66 µM, the TGI [20] was 3.1 µM and the GI50 [21] was 1.7 µM. The TGI [21] was 3.32 µM, the GI50 [22] was 1.71 µM and the TGI [22] was 3.29 µM. The GI50 [23] was 1.65 µM, the TGI [23] was 3.29 µM and the GI50 [2] was 1.75 µM. The TGI [2] was 3.24 µM, the GI50 [24] was 1.76 µM and the TGI [24] was 3.23 µM. It also gave a GI50 [3] of 1.73 µM, a TGI [3] of 3.86 µM and a GI50 [4] of 1.65 µM. The TGI [4] was 3.13 µM, the GI50 [5] was 1.69 µM and the TGI [5] was 3.08 µM. The GI50 [25] was 1.67 µM, the TGI [25] was 3.13 µM and the GI50 [26] was 1.69 µM. It also gave a TGI [26] of 3.36 µM, a GI50 [27] of 1.85 µM and a TGI [27] of 3.47 µM. For the same molecule, the GI50 [28] was 1.65 µM, the TGI [28] was 3.01 µM and the GI50 [29] was 1.71 µM. It also gave a TGI [29] of 3.17 µM, a GI50 [7] of 1.37 µM and a TGI [7] of 2.8 µM. It also gave a GI50 [30] of 1.57 µM, a TGI [30] of 2.91 µM and a GI50 [31] of 1.96 µM. It also gave a TGI [31] of 4.05 µM, a GI50 [32] of 1.76 µM and a TGI [32] of 3.36 µM. It also gave a GI50 [33] of 1.75 µM, a TGI [33] of 3.18 µM and a GI50 [8] of 1.64 µM. It also gave a TGI [8] of 3.16 µM, a GI50 [9] of 1.71 µM and a TGI [9] of 3.08 µM. For the same molecule, the GI50 [34] was 1.7 µM, the TGI [34] was 3.15 µM and the GI50 [35] was 1.62 µM. It also gave a TGI [35] of 2.99 µM, a GI50 [36] of 1.75 µM and a TGI [36] of 3.24 µM. The GI50 [10] was 1.58 µM, the TGI [10] was 2.93 µM and the GI50 [11] was 1.72 µM. It also gave a TGI [11] of 4.03 µM, a GI50 [12] of 2.02 µM and a TGI [12] of 3.47 µM. The GI50 [13] was 1.86 µM, the TGI [13] was 3.3 µM and the GI50 [37] was 1.63 µM. It also gave a TGI [37] of 3.1 µM, a GI50 [38] of 1.7 µM and a TGI [38] of 3.07 µM. For the same molecule, the GI50 [39] was 1.73 µM, the TGI [39] was 3.15 µM and the GI50 [40] was 1.98 µM. The TGI [40] was 3.52 µM, the GI50 [41] was 1.84 µM and the TGI [41] was 3.84 µM. It also gave a GI50 [42] of 1.55 µM, a TGI [42] of 2.91 µM and a GI50 [43] of 1.81 µM. It also gave a TGI [43] of 3.34 µM, a GI50 [44] of 1.58 µM and a TGI [44] of 2.94 µM. For the same molecule, the GI50 [45] was 1.69 µM, the TGI [45] was 4.26 µM and the GI50 [46] was 1.55 µM. The TGI [46] was 2.96 µM, the GI50 [47] was 1.8 µM and the TGI [47] was 3.21 µM. The GI50 [48] was 1.75 µM, the TGI [48] was 3.37 µM and the GI50 [49] was 1.62 µM. The TGI [49] was 2.97 µM, the GI50 [50] was 1.53 µM and the TGI [50] was 2.9 µM. The GI50 [51] was 1.35 µM, the TGI [51] was 2.7 µM and the GI50 [52] was 1.61 µM. For the same molecule, the TGI [52] was 2.98 µM, the GI50 [53] was 1.44 µM and the TGI [53] was 2.92 µM. For the same molecule, the GI50 [54] was 1.82 µM, the TGI [54] was 3.3 µM and the GI50 [55] was 1.62 µM. For the same molecule, the TGI [55] was 2.99 µM, the GI50 [56] was 1.74 µM and the TGI [56] was 3.43 µM. For the same molecule, the GI50 [14] was 0.549 µM, the TGI [14] was 2.04 µM and the GI50 [57] was 1.67 µM. The TGI [57] was 3.07 µM.
